Patent publication US20240245673A1, “Papain-like protease (PLpro) inhibitors” (Pfizer Inc., priority 2022, published 2024)

Each molecule was assayed against SARS-CoV-2 Papain like protease (PLpro) (Severe acute respiratory syndrome coronavirus 2 (2019-nCoV) (SARS-CoV-2), UniProt P0DTD1) (assay: Papain Like Protease (PLpro) biochemical assay with profluorogenic substrate Z-RLRGG-AMC). Conditions: IC50 (μM), SARS-CoV-2 PLpro 6.25 nM, 25 μM Z-RLRGG-AMC substrate, 60 minute reaction.

Row | Structure (SMILES) | IC50
1 | Cc1ccc(N2CCN(C)CC2)cc1C(=O)NC1(c2cc(-c3cnn(C)c3)cc3ccccc23)CC1 [Example 231, 2-methyl-N-(1-(3-(1-methyl-1H-pyrazol-4-yl)naphthalen-1-yl)cyclopropyl)-5-(4-methylpiperazin-1-yl)benzamide] | 0.003 µM
2 | Cc1ccc(N2CC3CC(C2)N3)cc1C(=O)N[C@H](C)c1cc(-c2cnn(C)c2)nc2ccccc12 [Example 251, 5-(3,6-diazabicyclo[3.1.1]heptan-3-yl)-2-methyl-N—((R)-1-(2-(1-methyl-1H-pyrazol-4-yl)quinolin-4-yl)ethyl)benzamide] | 0.005 µM
3 | Cc1ccccc1C(=O)NC(C)c1cc(-c2cnn(C(F)F)c2)nc2ccccc12 (stereo not shown) [Example 105, N-(1-{2-[1-(difluoromethyl)-1H-pyrazol-4-yl]quinolin-4-yl}ethyl)-2-methylbenzamide] | 0.266 µM

Same assay, conditions: SARS-CoV-2 PLpro 6.25 nM, 25 μM Z-RLRGG-AMC substrate, 60 minute reaction; read-out: IC50

Row | Structure (SMILES) | IC50
4 | CNC(=O)c1cc(-c2cc([C@@H](C)NC(=O)c3cc(CN)ccc3C)c3ccccc3n2)cn1C [Example 257, (R)-4-(4-(1-(5-(aminomethyl)-2-methylbenzamido)ethyl)quinolin-2-yl)-N,1-dimethyl-1H-pyrrole-2-carboxamide] | 0.022 µM
5 | Cc1ccc(N2CC3CC2CN3C)cc1C(=O)N[C@H](C)c1cc(-c2cnn(C)c2)nc2ccccc12 (stereo partly drawn) [Example 256, 2-methyl-N-((R)-1-(2-(1-methyl-1H-pyrazol-4-yl)quinolin-4-yl)ethyl)-5-(5-methyl-2,5-diazabicyclo[2.2.1]heptan-2-yl)benzamide] | 0.015 µM
6 | Cc1ccccc1C(=O)NC(C)c1cc(NCc2cnco2)nc2ccccc12 (stereo not shown) [Example 139, 2-methyl-N-[1-(2-{[(1,3-oxazol-5-yl)methyl]amino}-quinolin-4-yl)ethyl]benzamide] | 0.675 µM
7 | C[C@@H](NC(=O)c1ccccc1CCC(=O)NNC(=O)/C=C/C(N)=O)c1cc(-c2cnn(C)c2)nc2ccccc12 [Example 224, (R,E)-2-(3-(2-(4-amino-4-oxobut-2-enoyl)hydrazineyl)-3-oxopropyl)-N-(1-(2-(1-methyl-1H-pyrazol-4-yl)quinolin-4-yl)ethyl)benzamide] | 0.006 µM
8 | Cc1ccccc1C(=O)NC(C)c1cc(NC2CCOC2)nc2ccccc12 (stereo not shown) [Example 142, 2-methyl-N-(1-{2-[(oxolan-3-yl)amino]quinolin-4-yl}ethyl)benzamide] | 0.9 µM
9 | COC[C@H](OCc1cscn1)c1ccc(C(=O)NC2(c3cc(-c4cc(C(=O)N(C)C)n[nH]4)nc4ccccc34)CC2)c(C)c1 (single isomer, unassigned) [Example 337] | < 0.001 µM
10 | COC(=O)[C@H]1O[C@@H]1C(=O)NNC(=O)CCc1ccccc1C(=O)N[C@H](C)c1cc(-c2cnn(C)c2)nc2ccccc12 [Example 220, methyl(2S,3S)-3-(2-(3-(2-(((R)-1-(2-(1-methyl-1H-pyrazol-4-yl)quinolin-4-yl)ethyl)carbamoyl)phenyl)propanoyl)hydrazine-1-carbonyl)oxirane-2-carboxylate] | 0.002 µM
11 | Cc1ccccc1C(=O)NC(C)c1cc(-c2cnn(C)n2)nc2ccccc12 (stereo not shown) [Example 135, 2-methyl-N-{1-[2-(2-methyl-2H-1,2,3-triazol-4-yl)quinolin-4-yl]ethyl}benzamide] | 0.855 µM
12 | Cc1ccccc1C(=O)NC(C)c1cc(-c2scc3c2OCCO3)nc2ccccc12 (stereo not shown) [Example 104, N-{1-[2-(2,3-dihydrothieno [3,4-b][1,4]dioxin-5-yl)quinolin-4-yl]ethyl}-2-methylbenzamide] | 10 µM
13 | COC[C@@H](OCc1cocn1)c1ccc(C(=O)NC2(c3cc(-c4cnn(C)c4)nc4ccccc34)CC2)c(C)c1 (single isomer, unassigned) [Example 339] | < 0.001 µM
14 | Cc1ccccc1C(=O)NC(C)c1cc(-c2[nH]ncc2C)nc2ccccc12 (stereo not shown) [Example 102] | 0.904 µM
15 | Cc1ccccc1C(=O)NC(C)c1cc(N2CCC(S(=O)(=O)N(C)C)CC2)nc2ccccc12 (stereo not shown) [Example 151, N-(1-{2-[4-(dimethylsulfamoyl)piperidin-1-yl]quinolin-4-yl}ethyl)-2-methylbenzamide] | 1.46 µM
16 | Cc1ccc(N2CCNCC2)cc1C(=O)NC(C)c1cc(-c2cnn(C)c2)cc2ccccc12 (stereo not shown) [Example 59, 2-methyl-N-(1-(3-(1-methyl-1H-pyrazol-4-yl)naphthalen-1-yl)ethyl)-5-(piperazin-1-yl)benzamide] | 0.025 µM
17 | Cc1ccc(CN)cc1C(=O)N[C@H](C)c1cc(-c2cc(C(=O)N(C)C)n(C)c2)nc2ccccc12 [Example 258, (R)-4-(4-(1-(5-(aminomethyl)-2-methylbenzamido)ethyl)quinolin-2-yl)-N,N,1-trimethyl-1H-pyrrole-2-carboxamide] | 0.044 µM
18 | COC[C@H](OCc1cscn1)c1ccc(C(=O)NC2(c3cc(-c4cc(C(=O)N(C)C)n[nH]4)cc4ncccc34)CC2)c(C)c1 (single isomer, unassigned) [Example 361] | < 0.001 µM
19 | Cc1cc(COCc2cscn2)ccc1C(=O)NC1(c2cc(-c3cc(C(=O)N(C)C)n[nH]3)nc3ccccc23)CC1 [Example 343, N,N-dimethyl-5-(4-(1-(2-methyl-4-((thiazol-4-ylmethoxy)methyl)benzamido)cyclopropyl)quinolin-2-yl)-1H-pyrazole-3-carboxamide] | < 0.001 µM
20 | Cc1ccccc1C(=O)N[C@H](C)c1cc(-c2cnn(C)c2)nc2ccccc12 [Example 49, (R)-2-methyl-N-(1-(2-(1-methyl-1H-pyrazol-4-yl)quinolin-4-yl)ethyl)benzamide] | 0.151 µM

Row | Structure (SMILES) | IC50
21 | Cc1ccccc1C(=O)NC(C)c1cc(N(C)CCC(=O)N(C)C)nc2ccccc12 (stereo not shown) [Example 143, N-[1-(2-{[3-(dimethylamino)-3-oxopropyl](methyl)amino}-quinolin-4-yl)ethyl]-2-methylbenzamide] | 8.48 µM
22 | COCCOc1cc([C@@H](C)NC(=O)c2ccccc2C)c2ccccc2n1 [Example 47, (R)-N-(1-(2-(2-methoxyethoxy)quinolin-4-yl)ethyl)-2-methylbenzamide] | 3.13 µM
23 | COCCn1nc(C)c(-c2cc(C(C)NC(=O)c3ccccc3C)c3ccccc3n2)c1C (stereo not shown) [Example 121, N-(1-{2-[1-(2-methoxyethyl)-3,5-dimethyl-1H-pyrazol-4-yl]quinolin-4-yl}ethyl)-2-methylbenzamide] | 1.42 µM
24 | Cc1ccccc1C(=O)NC(C)c1cc(NC2CCCOC2)nc2ccccc12 (stereo not shown) [Example 147] | 0.909 µM
25 | Cc1cc(C(=O)NCc2cscn2)ccc1C(=O)N[C@H](C)c1cc(-c2cnn(C)c2)nc2ccccc12 [Example 201, (R)-2-methyl-N1-(1-(2-(1-methyl-1H-pyrazol-4-yl)quinolin-4-yl)ethyl)-N4-(thiazol-4-ylmethyl)terephthalamide] | 0.003 µM
26 | Cc1cc(COCc2cscn2)ccc1C(=O)NC1(c2cc(-c3cc(C(=O)N(C)C)n[nH]3)cc3ncccc23)CC1 [Example 351, N,N-dimethyl-5-(5-(1-(2-methyl-4-((thiazol-4-ylmethoxy)methyl)benzamido)cyclopropyl)quinolin-7-yl)-1H-pyrazole-3-carboxamide] | < 0.001 µM
27 | Cc1ccccc1C(=O)NC(C)c1cc(-c2cncnc2)nc2ccccc12 (stereo not shown) [Example 130, 2-methyl-N-{1-[2-(pyrimidin-5-yl)quinolin-4-yl]ethyl} benzamide] | 3.1 µM
28 | CNC(=O)c1c[nH]c(-c2cc(C(C)NC(=O)c3cc(CN)ccc3C)c3ccccc3c2)c1 (stereo not shown) [Example 71, 5-(4-(1-(5-(aminomethyl)-2-methylbenzamido)ethyl)naphthalen-2-yl)-N-methyl-1H-pyrrole-3-carboxamide] | 0.016 µM
29 | Cc1ccc(NC(=O)[C@H]2CCCCN2)cc1C(=O)NC(C)c1cc(-c2ccn[nH]2)cc2ccccc12 (mixture of isomers) [Example 65, (2R)-N-(3-((1-(3-(1H-pyrazol-5-yl)naphthalen-1-yl)ethyl)carbamoyl)-4-methylphenyl)piperidine-2-carboxamide] | 0.021 µM
30 | Cc1ccc(N2CCN(C)CC2)cc1C(=O)NC1(c2cc(-c3ccc(C(=O)N(C)C)[nH]3)cc3ccccc23)CC1 [Example 292, N,N-dimethyl-5-(4-(1-(2-methyl-5-(4-methylpiperazin-1-yl)benzamido)cyclopropyl)naphthalen-2-yl)-1H-pyrrole-2-carboxamide] | < 0.001 µM
31 | CCOC(=O)/C=C/C(=O)NNC(=O)CCc1ccccc1C(=O)N[C@H](C)c1cc(-c2cnn(C)c2)nc2ccccc12 [Example 232, ethyl (R,E)-4-(2-(3-(2-((1-(2-(1-methyl-1H-pyrazol-4-yl)quinolin-4-yl)ethyl)carbamoyl)phenyl)propanoyl)hydrazineyl)-4-oxobut-2-enoate] | 0.003 µM
32 | Cc1ccccc1C(=O)N[C@H](C)c1cc(OCC2COC2)nc2ccccc12 [Example 44, (R)-2-methyl-N-(1-(2-(oxetan-3-ylmethoxy)quinolin-4-yl)ethyl)benzamide] | 3.97 µM
33 | Cc1ccc(N2CCN(C)CC2=O)cc1C(=O)N[C@H](C)c1cc(-c2cnn(C)c2)nc2ccccc12 [Example 249, (R)-2-methyl-N-(1-(2-(1-methyl-1H-pyrazol-4-yl)quinolin-4-yl)ethyl)-5-(4-methyl-2-oxopiperazin-1-yl)benzamide] | 0.733 µM
34 | Cc1ccc(N2CCNCC2=O)cc1C(=O)N[C@H](C)c1cc(-c2cnn(C)c2)nc2ccccc12 [Example 248] | 0.39 µM
35 | Cc1cc(COCc2cscn2)ccc1C(=O)NC1(c2cc(-c3cnn(C)c3)cc3nc(C(C)(C)O)ccc23)CC1 [Example 354, N-(1-(2-(2-hydroxypropan-2-yl)-7-(1-methyl-1H-pyrazol-4-yl)quinolin-5-yl)cyclopropyl)-2-methyl-4-((thiazol-4-ylmethoxy)methyl)benzamide] | < 0.001 µM
36 | COC[C@H](OCc1cocn1)c1ccc(C(=O)NC2(c3cc(-c4cnn(C)c4)cc4ncccc34)CC2)c(C)c1 (single isomer, unassigned) [Example 340] | 0.002 µM
37 | Cc1cc(C(=O)N(C)Cc2cscn2)ccc1C(=O)N[C@H](C)c1cc(-c2cnn(C)c2)nc2ccccc12 [Example 243] | 0.077 µM
